# Source: US20170101521A1, “THERMAL BASE GENERATOR, THERMOSETTING RESIN COMPOSITION, CURED FILM, CURED FILM MANUFACTURING METHOD, AND SEMICONDUCTOR DEVICE” (FUJIFILM Corporation, priority 2014, published 2017)
# Tests used:
# [1] = Base generation temperature by differential scanning calorimetry; format: physicochemical; settings: DSC, heated to 250° C. at 5° C./min in pressure-resistant capsule; peak temperature of lowest exothermic peak
# Method: The base generation temperature may be measured, for example, by heating a compound to 250° C. at a rate of 5° C./minute in a pressure-resistant capsule, reading a peak temperature of an exothermic peak having the lowest temperature, and taking the peak temperature as a base generation temperature, using differential scanning calorimetry.
# Using differential scanning calorimetry (Q2000, manufactured by TA), (A) a thermal base generator was heated to 250° C. at 5° C./min in a pressure-resistant capsule. The peak temperature of an exothermic peak having the lowest temperature was read to measure such a peak temperature as a base generation temperature.
# [2] = literature value, or calculated with ACD/pKa for compounds not listed; cited from earlier work
Compound,Base generation temperature [1],pKa1 of anion [2]
O=C(O)CN(CC(=O)O)c1ccccc1 [A-1],145 °C,–
Cc1ccc(N(CC(=O)O)CC(=O)O)cc1 [A-2],140 °C,–
O=C(O)CN(CC(=O)O)c1ccc(Cc2ccc(N(CC(=O)O)CC(=O)O)cc2)cc1 [A-8],145 °C,–
CC(C)(c1ccc(N(CC(=O)O)CC(=O)O)cc1)c1ccc(N(CC(=O)O)CC(=O)O)cc1 [A-9],140 °C,–
O=C(O)CC(Nc1ccccc1)C(=O)O (stereo not drawn) [A-11],200 °C,–
C1CCC2=[N+](CC1)CCCN2.O=C([O-])CCC(=O)O [A-12],150 °C,–
CCN(CC)CC.O=C(O)CCC(=O)O [A-13],170 °C,–
C=CCN(CC(=O)O)CC(=O)O [A-17],190 °C,–
CCCCCCCCCCCC[N+](C)(C)CC(=O)c1ccccc1.O=C([O-])C(=O)O [A-21],150 °C,1.2
CCCCCCCCCCCC[N+](C)(C)CC(=O)c1ccccc1.O=C([O-])CCC(=O)O [A-22],130 °C,4.2
O=C(C[n+]1ccccc1)c1ccccc1.O=C([O-])C(=O)O [A-27],140 °C,1.2
O=C(C[N+]1=C2CCCCCN2CCC1)c1ccccc1.O=C([O-])C(=O)O [A-28],140 °C,1.2
O=C(C[N+]1=C2CCCN2CCC1)c1ccccc1.O=C([O-])C(=O)O [A-29],140 °C,1.2
C[N+]1(CC(=O)c2ccccc2)CCCCC1.O=C([O-])C(=O)O [A-30],140 °C,1.2
O=C(C[N+]12CCN(CC1)CC2)c1ccccc1.O=C([O-])C(=O)O [A-31],140 °C,1.2
C[N+]1(C)CCCCC1.O=C([O-])C(=O)O [A-32],190 °C,1.2
C1CN2CCN1CC2.O=C(O)C(=O)O [A-33],70 °C,1.2
C1CCC2=[N+](CC1)CCCN2.O=C([O-])C(=O)O [A-34],80 °C,1.2
CC[N+](CC)(CC)C(c1ccccc1)c1ccccc1.O=C([O-])C(=O)O [A-36],170 °C,1.2
C[n+]1ccccc1.O=C([O-])C(=O)O [A-37],180 °C,1.2
CCCCCCCC[N+](C)(C)CC(=O)c1ccccc1.O=C([O-])/C=C\C(=O)O [A-39],150 °C,1.9
C[N+](C)(CC(=O)c1ccccc1)C1CCCCC1.O=C([O-])/C=C\C(=O)O [A-40],150 °C,1.9
"CCC(O)C[N+](C)(C)[N-]C(=O)c1ccccc1OC (stereo not drawn) [X-1, reference compound]",80 °C,–
"C=Cc1ccc(NCC(=O)O)cc1 [X-5, reference compound]",Higher than 200 °C,–
"CN(CC(=O)O)CC(=O)O [X-7, reference compound]",Higher than 200 °C,–
"C1CNC2=[N+](C1)CCCN2.O=C([O-])/C=C\C(=O)O [X-9, reference compound]",Lower than 40 °C,–

# Now from value to molecule, other results behind:
Base generation temperature [1],Compound,pKa1 of anion [2]
140 °C,COc1ccc(N(CC(=O)O)CC(=O)O)cc1 [A-3],–
150 °C,O=C(O)CN(CC(=O)O)c1ccc(-c2ccccc2)cc1 [A-4],–
155 °C,O=C(O)CN(CC(=O)O)c1cc(C(F)(F)F)cc(C(F)(F)F)c1 [A-5],–
155 °C,O=C(O)CN(CC(=O)O)c1ccc(C(F)(F)F)cc1 [A-6],–
155 °C,CC(=O)c1ccc(N(CC(=O)O)CC(=O)O)cc1 [A-7],–
200 °C,Cc1ccc(NC(CC(=O)O)C(=O)O)cc1 (stereo not drawn) [A-10],–
130 °C,O=C(O)CN(CC(=O)Nc1ccccc1)c1ccccc1 [A-16],–
150 °C,CCCCCCCCCCCC[N+](C)(C)CC(=O)c1ccccc1.O=C([O-])/C=C\C(=O)O [A-18],1.9
140 °C,CCCCCCCCCCCC[N+](C)(C)CC(=O)c1ccc2ccccc2c1.O=C([O-])/C=C\C(=O)O [A-23],1.9
150 °C,CCCCCC[N+](C)(C)CC(=O)c1ccccc1.O=C([O-])/C=C\C(=O)O [A-38],1.9
150 °C,C[N+](C)(CC(=O)c1ccccc1)Cc1ccccc1.O=C([O-])/C=C\C(=O)O [A-41],1.9
150 °C,CCCCC(CC)C[N+](C)(C)CC(=O)c1ccccc1.O=C([O-])/C=C\C(=O)O (stereo not drawn) [A-42],1.9
Higher than 200 °C,"C=C(C)C(=O)OC(CO)N(CC(=O)O)c1ccccc1 (stereo not drawn) [X-4, reference compound]",–
Higher than 200 °C,"O=C(O)CNc1ccccc1 [X-6, reference compound]",–
Higher than 200 °C,"O=C(O)CN(CCN(CC(=O)O)CC(=O)O)CC(=O)O [X-8, reference compound]",–
